Laboratory results reported in patent US11180487B2, “Substituted cyanoindoline derivatives as NIK inhibitors” (Janssen Pharmaceutica NV, priority 2016, dated 2021).
Where two headings read alike, the source gives them in different places.

Assays:
[1] = tested on: JJN-3 (NIK translocated) multiple myeloma cells; assay: Antiproliferative activity on JJN-3 multiple myeloma cells (CellTiter-Glo, 96 hr), Biological Assay C; type: cell-based, human; conditions: JJN-3 (NIK translocated) cells, averaged values, read-out: JJN-3 Proliferation inhibition (IC50 (nM))
Procedure, shortened: (§1)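 JJN-3 and KMS12-BM cells in RPMI 1640 with 10% FCS were plated at 15000–20000 cells/well and treated 96 h with a 9-point 1:3 dilution series (0.3% DMSO). Viability read by CellTiter-Glo luminescence, blank (time-zero cells) subtracted, expressed as % of untreated control; duplicate wells.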

[2] = tested on: P-IKKα levels in L363 (NIK translocated multiple myeloma) cells; assay: Effect of compounds on P-IKKα levels in L363 cells (Mesoscale sandwich immuno-assay), Biological Assay B; type: cell-based, human; conditions: 2 hr treatment, averaged values, read-out: Inhibition of pIKKα_L-363 (IC50 (nM))
Protocol: Effect of Compounds on P-IKKα Levels in L363 (NIK Translocated Multiple Myeloma) Cells
All compounds tested were dissolved in DMSO and further dilutions were made in culture medium. Final DMSO concentration was 1% (v/v) in cell assays. The human L363 cells (ATCC) were cultured in RPMI 1640 medium supplemented with GlutaMax and 10% fetal calf serum (PAA). Cells were routinely maintained at densities of 0.2×10^6 cells per ml-1×10^6 cells per ml at 37° C. in a humidified 5% CO2 atmosphere. Cells were passaged twice a week splitting back to obtain the low density. Cells were seeded in 96 well plates (Nunc 167008) at 2×10^6 per ml media in a volume of 75 μl per well plus 25 μl 1 μg/ml recombinant human B-cell activating factor (BAFF/BLyS/TNFSF13B). Seeded cells were incubated at 37° C. in a humidified 5% CO2 atmosphere for 24 hr. Drugs and/or solvents were added (20 μl) to a final volume of 120 μl. Following 2 hr treatment plates were removed from the incubator and cell lysis was achieved by the addition of 30 μl 5× lysis buffer followed by shaking on a plate shaker at 4° C. for 10 min. At the end of this incubation lysed cells were centrifuged at 800×g for 20 min at 4° C. and the lysate was assessed for P-IKKα levels by sandwich immuno-assay carried out in anti-rabbit antibody coated Mesoscale plates. Within an experiment, the results for each treatment were the mean of 2 replicate wells. For initial screening purposes, compounds were tested using an 8 point dilution curve (serial 1:3 dilutions). For each experiment, controls (containing MG132 and BAFF but no test drug) and a blank incubation (containing MG132 and BAFF and 10 μM ADS125117, a test concentration known to give full inhibition) were run in parallel. The blank incubation value was subtracted from all control and sample values. To determine the IC50 a sigmoidal curve was fitted to the plot of % inhibition of control P-IKKα levels versus Log10 compound concentration.
Note: Compounds 237 and 238 were tested at a maximum top concentration of 823 nM.

[3] = molecular target: recombinant human NF-kappaB-inducing kinase (NIK/MAP3K14) (Homo sapiens, UniProt Q99558); assay: Inhibition of auto-phosphorylation of recombinant human NIK/MAP3K14 activity (AlphaScreen), Biological Assay A; type: biochemical; conditions: averaged values over all measurements on all batches
Procedure, shortened: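 GST-tagged enzyme (0.2 nM) incubated with compound and 25 μM ATP in 50 mM Tris pH 7.5, 5 mM MgCl2, 1 mM EGTA, 1 mM DTT, 0.1 mM Na3VO4, 1% DMSO, 1 h at 25 °C. Stopped with anti-phospho-IKK Ser176/180 antibody; AlphaScreen bead read, blank-subtracted, IC50 from sigmoidal fit.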

[4] = tested on: KMS12-BM (NIK WT) multiple myeloma cells; assay: Antiproliferative activity on KMS12-BM multiple myeloma cells (CellTiter-Glo, 96 hr), Biological Assay C; type: cell-based, human; conditions: averaged values, read-out: KMS-12 Proliferation inhibition (IC50 (nM))
Procedure, shortened: as §1

Chain of recombinant human NF-kappaB-inducing kinase (NIK/MAP3K14) (Q99558 whole entry): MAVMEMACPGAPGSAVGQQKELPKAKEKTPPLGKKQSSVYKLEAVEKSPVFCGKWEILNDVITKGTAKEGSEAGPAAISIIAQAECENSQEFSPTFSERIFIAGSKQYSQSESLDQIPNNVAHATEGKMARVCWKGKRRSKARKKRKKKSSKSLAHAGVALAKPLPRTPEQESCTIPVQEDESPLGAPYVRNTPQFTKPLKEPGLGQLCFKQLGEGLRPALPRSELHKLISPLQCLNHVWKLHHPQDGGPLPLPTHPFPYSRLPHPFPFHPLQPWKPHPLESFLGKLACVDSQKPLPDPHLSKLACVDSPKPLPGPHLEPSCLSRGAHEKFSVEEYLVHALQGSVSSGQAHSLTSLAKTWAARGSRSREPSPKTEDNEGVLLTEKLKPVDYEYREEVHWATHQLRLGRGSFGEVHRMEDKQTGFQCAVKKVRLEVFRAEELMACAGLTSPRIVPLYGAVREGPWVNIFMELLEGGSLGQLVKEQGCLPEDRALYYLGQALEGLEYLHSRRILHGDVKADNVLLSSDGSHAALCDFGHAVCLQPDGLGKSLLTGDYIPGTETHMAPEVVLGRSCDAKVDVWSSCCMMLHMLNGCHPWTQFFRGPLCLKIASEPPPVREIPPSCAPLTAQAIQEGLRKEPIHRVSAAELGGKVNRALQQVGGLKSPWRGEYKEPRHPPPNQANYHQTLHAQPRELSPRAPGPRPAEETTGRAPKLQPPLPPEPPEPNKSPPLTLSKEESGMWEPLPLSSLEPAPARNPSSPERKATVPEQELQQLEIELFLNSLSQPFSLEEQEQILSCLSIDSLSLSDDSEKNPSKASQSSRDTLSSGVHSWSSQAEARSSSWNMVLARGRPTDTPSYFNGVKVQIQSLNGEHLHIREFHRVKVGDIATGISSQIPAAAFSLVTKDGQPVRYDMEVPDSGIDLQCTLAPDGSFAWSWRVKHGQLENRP

Row | SMILES | IC50 ([1]; Homo sapiens, JJN-3, 96 h) | IC50 ([2]; Homo sapiens, L-363, 2 h) | IC50 [3] | IC50 ([4]; Homo sapiens, KMS-12-BM, 96 h) | IC50 [1] | IC50 [2] | IC50 [4]
1 | Cc1cc(P(C)(C)=O)c(Cl)cc1Nc1nccc(-c2cc(C#N)c3c(c2)[C@@](C)(CO)CN3)n1 [Compound 20] | 63 nM | 11.5 nM | 1.7 nM | ~1580 nM |  |  | 
2 | COc1cc(C(=O)NC2CCOCC2)ccc1Nc1nccc(-c2cc(C#N)c3c(c2)C(C)(CO)CN3)n1 (stereo not shown) [Compound 21] | 51 nM | 4.5 nM | 2.5 nM | 891 nM |  |  | 
3 | COc1cc(N2CCC(N(C)C)CC2)c(Cl)cc1Nc1nccc(-c2cc(C#N)c3c(c2)C(C)(CO)CN3)n1 (stereo not shown) [Compound 22] | 7 nM | 11.5 nM | 2.5 nM | 631 nM |  |  | 
4 | COc1cc(CO)c(Cl)cc1Nc1nccc(-c2cc(C#N)c3c(c2)C(C)(CO)CN3)n1 (stereo not shown) [Compound 24] | 13 nM | 6 nM | 4.5 nM | 2820 nM |  |  | 
5 | CN1CCC(Oc2ccc(Cl)cc2Nc2nccc(-c3cc(C#N)c4c(c3)C(C)(CO)CN4)n2)CC1 (stereo not shown) [Compound 25] | 12 nM | 33.9 nM | 3.6 nM | 589 nM |  |  | 
6 | Cc1c(NC(=O)C2CCN(C)CC2)cc(Cl)cc1Nc1nccc(-c2cc(C#N)c3c(c2)[C@@](C)(CO)CN3)n1 [Compound 68] | 16 nM | 1.9 nM | 0.8 nM | 1480 nM |  |  | 
7 | Cc1cc(C(=O)NC2CCOCC2)ccc1Nc1nccc(-c2cc(C#N)c3c(c2)C(C)(C)CN3)n1 [Compound 78] | 87 nM | 7.9 nM | 2.7 nM | 2040 nM |  |  | 
8 | COc1cc(N2CCOCC2)c(Cl)cc1Nc1nccc(-c2cc(C#N)c3c(c2)C(C)(C)CN3)n1 [Compound 79] | 91 nM | 75.9 nM | 47.9 nM | ~5130 nM |  |  | 
9 | COc1cc(OCC(=O)N(C)C)c(Cl)cc1Nc1nccc(-c2cc(C#N)c3c(c2)C(C)(C)CN3)n1 [Compound 82] | 22 nM | 5.3 nM | 7.6 nM | > 10000 nM |  |  | 
10 | COc1cc(CO)c(Cl)cc1Nc1nccc(-c2cc(C#N)c3c(c2)C(C)(C)CN3)n1 [Compound 84] | 251 nM | 12.9 nM | 19.1 nM | ~7590 nM |  |  | 
11 | COc1cc(S(C)(=O)=O)c(Cl)cc1Nc1nccc(-c2cc(C#N)c3c(c2)C(C)(C)CN3)n1 [Compound 85] | 57 nM | 41.7 nM | 11.3 nM | > 10000 nM |  |  | 
12 | CCN1CCN(Cc2cc(OC)c(Nc3nccc(-c4cc(C#N)c5c(c4)C(C)(C)CN5)n3)cc2Cl)CC1 [Compound 87] | 35 nM | 93.3 nM | 7.1 nM | 1180 nM |  |  | 
13 | Cc1ccc(C#N)cc1Nc1nccc(-c2cc(C#N)c3c(c2)[C@@](C)(CO)CN3)n1 [Compound 134] |  |  | 0.9 nM |  | 91 nM | 2.8 nM | 5500 nM
14 | Cc1ccc(C#N)cc1Nc1nccc(-c2cc(C#N)c3c(c2)[C@@](C)(COC(=O)[C@H](C)N)CN3)n1 [Compound 138] | 102 nM | 2.1 nM | 11.2 nM | ~4790 nM |  |  | 
15 | Cc1ccc(C#N)cc1Nc1nccc(-c2cc(C#N)c3c(c2)[C@](C)(COS(=O)(=O)O)CN3)n1 [Compound 144] | ~10000 nM | ~1170 nM | 5.8 nM | > 10000 nM |  |  | 
16 | Cc1ccc(C#N)cc1Nc1ncc(F)c(-c2cc(C#N)c3c(c2)[C@@](C)(CO)CN3)n1 [Compound 147] | 302 nM | 1.2 nM | 3.9 nM | > 10000 nM |  |  | 
17 | [2H]C([2H])(O)c1cc(Nc2nccc(-c3cc(C#N)c4c(c3)[C@@](C)(CO)CN4)n2)c(C)cc1F [Compound 148] | 523 nM | 8.9 nM | 4.7 nM | > 10000 nM |  |  | 
18 | [2H]C([2H])(O)c1ccc(C)c(Nc2nccc(-c3cc(C#N)c4c(c3)[C@@](C)(CO)CN4)n2)c1 [Compound 150] | 91 nM | 2.2 nM | 0.8 nM | > 10000 nM |  |  | 
19 | Cc1cc(F)c(CO)cc1Nc1nccc(-c2cc(C#N)c3c(c2)[C@@](C)(CO)CN3)n1 [Compound 152] | 272 nM | 7.8 nM | 2.3 nM | > 10000 nM |  |  | 
20 | C[C@]1(CO)CNc2c(C#N)cc(-c3ccnc(Nc4cc(C#N)ccc4CO)n3)cc21 [Compound 153] | 240 nM | 6.3 nM | 1.3 nM | > 10000 nM |  |  | 
21 | CC(C)Oc1ccc(CO)cc1Nc1nccc(-c2cc(C#N)c3c(c2)[C@@](C)(CO)CN3)n1 [Compound 154] | 141 nM | 6.6 nM | 1.4 nM | > 10000 nM |  |  | 
22 | Cc1ccc(C(=O)NCCN2CCCC2)cc1Nc1nccc(-c2cc(C#N)c3c(c2)[C@@](C)(CO)CN3)n1 [Compound 158] | 1230 nM | 91.2 nM | 5.4 nM | > 10000 nM |  |  | 
23 | CNC(=O)c1ccc(OC(C)C)c(Nc2nccc(-c3cc(C#N)c4c(c3)[C@@](C)(CO)CN4)n2)c1 [Compound 162] | 288 nM | 19.5 nM | 5.5 nM | > 10000 nM |  |  | 
24 | Cc1cc(CCN2CCOCC2)c(C#N)cc1Nc1nccc(-c2cc(C#N)c3c(c2)[C@@](C)(CO)CN3)n1 [Compound 173] | 29 nM | 1.3 nM | 1.8 nM | > 10000 nM |  |  | 
25 | CCC(=O)NCC#Cc1cc(C)c(Nc2nccc(-c3cc(C#N)c4c(c3)[C@@](C)(CO)CN4)n2)cc1C#N [Compound 176] | 91 nM | 5.9 nM | 3.8 nM | > 10000 nM |  |  | 
26 | CC(=O)NCCCOc1ccc(C#N)cc1Nc1nccc(-c2cc(C#N)c3c(c2)[C@@](C)(CO)CN3)n1 [Compound 181] | 195 nM | 7.8 nM | 5.1 nM | > 10000 nM |  |  | 
27 | Cc1ccc(CO)cc1Nc1nccc(-c2cc(C#N)c3c(c2)C(C)(CO)CN3)n1 (stereo not shown) [Compound 215] | 199 nM | 2.9 nM | 1.5 nM | > 10000 nM |  |  | 
28 | CN1CCC(Oc2ccc(C#N)cc2Nc2nccc(-c3cc(C#N)c4c(c3)[C@@](C)(CO)CN4)n2)C(F)C1 (stereo partly shown) [Compound 230] | 46 nM | 7.7 nM | 6.3 nM | > 10000 nM |  |  | 
